In the METLIN SMRT retention time set (Domingo-Almenara et al. 2019):

Assay: gradient 5% acetonitrile 3 min, to 50% in 2 min, to 85% in 15 min, held 3 min, 100 µL/min
Conditions: column: Zorbax Extend-C18 2.1 x 50 mm; eluents: water / acetonitrile, 0.1% formic acid
Procedure, shortened: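 The system's dead and dwell volumes were 40 μL and 900 μL, with a Zorbax Extend-C18 column (2.1 × 50 mm, 1.8 μm) run at 100 μL/min in water and acetonitrile containing 0.1% formic acid each. Pure standards were analyzed in mixtures of ~100 molecules by HPLC–quadrupole time-of-flight mass spectrometry in positive and negative ionization mode. Retention time was assigned from computationally picked, manually inspected adduct peaks.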

SMILES	RP-LC retention time
COc1ccc(-c2noc(-c3ccc(N4CCN(Cc5ccc6c(c5)OCO6)CC4)nc3)n2)cc1	785 s
CCc1nccn1Cc1noc(-c2ccc(F)cc2)n1	615 s
Fc1cccc(-c2nnc(Cc3nc(-c4cccc(Cl)c4)no3)o2)c1	1070 s
Cc1cccc(S(=O)(=O)N2CCCC(Cn3c(C)nc4cccnc43)C2)c1 (stereo not given)	821 s
O=C(Nc1ccc(-c2cn3cccnc3n2)cc1)c1cc(Br)ccc1Cl	707 s
Cc1ccc(S(=O)(=O)N(CCN2CCCCC2C)CC(=O)N2CCNCC2)c(C)c1 (stereo not given)	588 s
Cc1cnc(-c2cccnc2)n1CC1CNC1	508 s
CCn1cc(-c2ccc(C)cc2)cc1C(=O)N1CCC(C)CC1	1230 s
O=C(N[C@H]1C[C@@H]2C[C@H]1N(C(=O)CSc1ccccc1)C2)c1ccccc1	786 s
Cc1ncc2c(n1)C[C@@H]1CC[C@H]2N1C(=O)Nc1ccc(C)c(F)c1	728 s
Cc1noc(C)c1C(=O)N(C)C1CCc2nnc(C)n2CC1 (stereo not given)	552 s
Cc1ccc(NC(=O)N2CCCC2c2nc(-c3cccc(Cl)c3)no2)cc1 (stereo not given)	1110 s
CCn1c(=O)oc2cc(-c3noc(-c4ccc(OC)c(OC)c4)n3)ccc21	990 s
Cc1ccc(C2=NC3(CCN(C(=O)c4cnccn4)CC3)ON2)cc1	680 s
CCCCS(=O)(=O)N1CCC(N2CC(F)(F)C[C@H]2COc2cccnc2)CC1	682 s
COc1cc(Cl)c(C)cc1NC(=O)c1c(C)cc(C)cc1C	1150 s
COc1ccc(-n2ncc3c(=O)n(Cc4nc(-c5ccc(F)cc5)no4)cnc32)cc1	1030 s
Cc1ccc(NC(=O)CN2C(=O)NC3(CCCCC3)C2=O)cc1	760 s
CCC1Oc2ccc(S(=O)(=O)N3CCC(C(=O)N(C)c4ccc(C)cc4)CC3)cc2NC1=O (stereo not given)	837 s
Cc1ccn2c(Nc3ccc(Cl)cc3)c(-c3ccc(N4CCOCC4)cc3)nc2c1	967 s
O=C(NC1CCc2ccccc21)C1CCN(Cc2noc(-c3ccc(F)cc3)n2)CC1 (stereo not given)	683 s
Cc1cc(Cl)ccc1NC(=O)C1CCN(S(=O)(=O)c2ccc3c(c2)NC(=O)CO3)CC1	839 s
C=Cc1ccc(Cn2nc3c(S(=O)(=O)N4CCN(c5ccc(F)cc5)CC4)cccn3c2=O)cc1	1010 s
Cc1ccc(CNc2ccc3[nH]c(=O)[nH]c3c2)cc1	579 s
C[C@]12CC[C@H]3[C@@H](C[C@H](F)C4=CC(=O)CC[C@@]43C)[C@@H]1CC[C@@H]2O	798 s
COc1cc(-c2ccc(F)cc2)nc2ccc(NS(=O)(=O)c3ccc(C#N)cc3)cc12	784 s
Cc1nc2cccnc2n1C1CCN(C(=O)Nc2ccc(Br)cc2)CC1	669 s

SMILES	RP-LC retention time
Cc1ccn(-c2ccc(C(=O)NC3CCCCC3)cn2)n1	885 s
CC(C)c1cc(C(=O)N2CCCCC2)nc2ccnn12	767 s
COCCC1CCN(C(=O)c2cc(F)ccc2F)CC1	749 s
CSc1cccc(NC(=O)Cn2c(Nc3cc(C)cc(C)c3)nc(C)cc2=O)c1	909 s
CCCc1ccc(S(=O)(=O)N2CCC(C)(C(=O)NCc3ccc(F)cc3)CC2)cc1	1070 s
CCNC(=O)N(CC(=O)N1CCc2sccc2C1COc1ccc(C)cc1)CC1CC1 (stereo not given)	935 s
COc1ccc(S(=O)(=O)N2CCCC(Cn3c(C)nc4cccnc43)C2)cc1 (stereo not given)	688 s
Cc1ccc(NC(=O)C2CCCN(S(=O)(=O)c3c[nH]c(C(=O)N4CCCC4)c3)C2)cc1 (stereo not given)	850 s
Cc1nn(C)cc1S(=O)(=O)N1CCN(C(=O)c2ccco2)CC1	626 s
CCCN1CCCCc2cc(C(=O)NCC(N)=O)sc21	686 s
O=C1NCCCCCCN(C(=O)Nc2ccccc2F)[C@H]2CCCC[C@@H]12	846 s
COc1ccccc1-c1nc(-c2ccnc(N3CCOCC3)c2)no1	812 s
O=C(CC1CCN(C(=O)c2ccc3oc(C4CC4)nc3c2)CC1)N1CCOCC1	619 s
CCCS(=O)(=O)c1nc2ccc(NS(=O)(=O)c3ccc(C)cc3C)cc2s1	999 s
CCc1nc2cc(-c3noc(-c4ccc(OC)cc4)n3)ccc2o1	1180 s
CCN1CCN(C(=O)CN2c3ccc(Br)cc3-c3ccccc3S2(=O)=O)CC1	670 s
CCn1c(C(=O)N2CCCC(C(=O)N3CCN(c4ccc(OC)cc4)CC3)C2)cc2sccc21 (stereo not given)	885 s
COc1cccc(NC(=O)Cn2nc3c(Oc4ccc(Cl)cc4)nccn3c2=O)c1	877 s
O=C(NC1CCCCC1)N1CCN(CCn2c(-c3ccncc3)nc3cccnc32)CC1	585 s
COCCN1C(=O)CCc2cc(NS(=O)(=O)c3ccc(F)cc3F)ccc21	723 s
CCOC(=O)C1CCN(C(=O)c2cn3c(n2)CN(CC)CC3)CC1	575 s
O=C(NCc1nc(-c2ccc(NS(=O)(=O)c3ccc(Cl)cc3)cc2)no1)c1cccs1	909 s
COc1ccc(C(=O)Nc2nc(-c3ccc4c(c3)NC(=O)CO4)c(C)s2)cc1OC	814 s
CC(C)NC(C)Cc1ccc(I)cc1 (stereo not given)	746 s
CSCC(=O)N1CCC(C2CCN(C(C)=O)CC2)C1 (stereo not given)	624 s
CN(C)[C@@H]1CN(C(=O)c2cccc(Cl)c2)C[C@H]1CO	559 s

More lines, now with the values ahead:

RP-LC retention time	SMILES
1300 s	CC1CCCN(c2nn(CC(=O)Nc3cccc(C(C)C)c3)c(=O)c3ccccc23)C1 (stereo not given)
916 s	Cc1ccc(CNC(=O)c2cnc(-c3ccccc3)nc2-c2ccncc2)cc1C
718 s	Cc1nc2cc(-c3noc(CNC(=O)c4ccccc4)n3)ccc2n(C)c1=O
773 s	CC(C)(C)OC(=O)NCc1nnc(C(F)(F)F)n1-c1ccccc1
743 s	COC(=O)c1cccc(NC(=O)CSc2nccc(N3CCN(c4cccc(OC)c4)CC3)n2)c1
648 s	O=C(CCS(=O)(=O)c1ccccc1)Nc1ccc(-c2ccn[nH]2)cc1
1130 s	CC(C)N1C(=O)C(C)(C(=O)N2CCN(c3ccccc3F)CC2)Oc2cccnc21 (stereo not given)
753 s	Cc1noc(C)c1CNC(=O)c1nccc2ccccc12
992 s	Cc1sc(-c2noc(C(C)C)n2)cc1S(=O)(=O)N1CCC(C(=O)NCc2ccco2)CC1
788 s	O=C(NCc1ccco1)c1cc(-c2cccnc2)nc2ccc(Cl)cc12
730 s	Cc1cccc(NC(=O)N2CCC(N3CCN(Cc4ccccc4)C(=O)C3=O)CC2)c1C
629 s	COc1ccccc1CNC(=O)Cn1nc2cc(-c3ccccn3)nc(C)n2c1=O
940 s	O=C(Cn1nc2c3cc(-c4ccccc4)nn3ccn2c1=O)N1CCCc2ccccc21
1440 s	COC(=O)c1ccc2c(=O)n(-c3ccc(C)c(C)c3)c(N3CCC(C)CC3)nc2c1
780 s	COc1cccc(CNC(=O)CN2C(=O)NC(c3ccccc3Cl)C3=C2COC3=O)c1 (stereo not given)
923 s	CCC(C)NC(=O)c1cc(-c2ccc(Cl)cc2)[nH]c1C (stereo not given)
596 s	O=C(Cn1c(-c2cccs2)nc2ccccc21)NC1CC1
994 s	CC(C)Cn1cc(S(=O)(=O)Nc2cc(F)ccc2F)c2cccnc21
615 s	CCN1CCCC1CNC(=O)C(C)n1c2ccccc2c2cnn(C)c(=O)c21 (stereo not given)

RP-LC retention time	SMILES
607 s	COCCCNC(=O)C1c2cc(OC)c(OC)cc2C(=O)N(C)C1c1ccc(SC)cc1 (stereo not given)
825 s	CC(C)NC(=O)c1ccc(OCC2CCCN(C(=O)c3ccccc3)C2)cc1 (stereo not given)
1060 s	CCn1cc(-c2nc(C(=O)Nc3cccc(OC)c3)cs2)c2cccnc21
690 s	CC(C)CNC(=O)c1nn(C)c2c1COc1ccccc1-2
896 s	O=C(NCc1cccc(C(F)(F)F)c1)C1CCN(c2nnc(-c3ccccc3)o2)CC1
961 s	CCOc1ccccc1NC(=O)c1cnc2c(c1)c(=O)n(C)c(=O)n2-c1ccc(OC)cc1
683 s	COc1ccc(NC(=O)NC2CCN(c3ccccc3)C2=O)cc1OC (stereo not given)
860 s	Cc1ccc(CNC(=O)Cn2c(=O)nc(N3CCC(C)CC3)c3ccccc32)cc1
687 s	CCCN(C)c1nccn2c(=O)n(CC(=O)Nc3cccc(C)c3)nc12
803 s	COc1ccccc1NC(=O)CN1C(=O)NC2(CCC(C)CC2)C1=O (stereo not given)
651 s	CC(C)NC(=O)c1ccc2c(c1)ncn2CCNC(=O)Nc1ccc(Br)cc1F
898 s	O=C(Cn1cccc(-c2nc(-c3ccccc3)no2)c1=O)Nc1ccccc1Br
876 s	CCn1nccc1C(=O)Nc1cc(-c2cc3ccccc3n2CC)[nH]n1
903 s	Cc1nnc(-c2cn(CC(=O)NC3CCCCCCC3)c3ccccc23)o1
598 s	COc1nn(C)cc1C(=O)Nc1cc(C)ns1
652 s	COc1ccc(OC)c(S(=O)(=O)N2CCC(n3cnnc3C)CC2)c1
905 s	COc1ccc(CNC(=O)c2cc(-c3ccccc3)ns2)cc1
628 s	CCOC(=O)Nc1ccc2c(c1)CN(C(C)=O)CC2
